The values that follow come from patent US5354758A, “Benzomorphans useful as NMDA receptor antagonists” (priority 1992, dated 1994).

Read-outs that look alike come from different tables or passages of the source.

In general, Ki refers to a measure of affinity in units of concentration, obtained from inhibition or displacement. As a reminder, the ED50 is the dose that gives a 50% effect, or the effect in half of the subjects. High values mean weaker potency, low ones greater potency.

Assay [1] concerns the target T1, μ-site of opioid receptor (Rattus norvegicus, UniProt P33535).
T1 construct: Semipurified synaptic membranes were prepared according to the method of Toll et al. (1984); from tissue; host or cells: adult male Sprague-Dawley rat forebrain membranes
The assay is described as follows: In vitro binding, inhibition of [^3 H]DAGO binding to rat forebrain synaptic membranes. Also noted: species or system Sprague-Dawley rat. On the procedure: (§1) As described below, the compounds of the invention were tested for their ability to inhibit binding of radiolabeled versions of these known ligands.
Semipurified synaptic membranes were prepared according to the method of Toll et al. (1984). Adult male Sprague-Dawley rats were decapitated, and the forebrains were removed, weighed, and homogenized in 20 volumes of […] Tris-HCl, pH 7.7. The homogenate was centrifuged at 27,000×G for 15 minutes, and the resulting pellet was resuspended in buffer and recentrifuged twice. The washed membranes were resuspended in buffer to obtain a membrane concentration of 7.2 mg brain weight/mL; the final concentration in each assay tube was 12.2 mg/2 mL. […] The reaction was stopped by filtration through GF/B filters using a Brandel Cell Harvester. After washing twice with 5 mL of ice cold buffer, the filters were suspended in 5 mL scintillation fluid, and the radioactivity was counted after standing at room temperature overnight.

In assay [2] the target is NMDA receptor site. In words: In vitro binding, inhibition of [^3 H]MK-801 binding to rat forebrain synaptic membranes. Also noted: species or system Sprague-Dawley rat. Particulars: 3 nM [^3 H]MK-801, 50 μM glycine and glutamate, 37° C., 2 hours, read-out: Ki [^3 H]MK801. On the procedure:
as §1
Semipurified synaptic membranes were prepared according to the method of Bristow et al. (1986) with minor modifications. Sprague-Dawley rats were decapitated and the forebrains were removed, weighed, and homogenized in 20 volumes of 0.32M sucrose. The homogenate was centrifuged at 121×G for 10 min. The resulting supernatant was recentrifuged at 27,000×G for 15 min. The pellet was resuspended in 20 volumes of distilled water and this suspension was centrifuged at 8,000×G for 10 min. Both the supernatant and the buffy coat layer, removed with 2 mL of 5 mM Tris-Cl (pH 7.8), were pooled and centrifuged at 27,000×G for 15 min. The supernatant was removed, the pellet was covered with a small amount of 5 mM Tris-Cl, and the sample was frozen for at least 18 hrs at -20° C. Membranes were then washed four times in 5 mM Tris-Cl and finally resuspended in 25 mL. This preparation was used for the binding assay immediately or frozen for subsequent use.
The incubation was terminated by rapid filtration (Brandel Cell Harvester) over Whatman GF/B filters, which were then washed twice with 5 mL of 5 mM Tris-HCl. Radioactivity trapped on the filters was counted in 5 mL Scintiverse II at 50% efficiency in 7 mL minivials after standing at room temperature overnight.

Assay [3] deals with T2, σ-site of opioid receptor (Cavia porcellus, UniProt Q60492).
T2 construct: Hartley guinea pigs were decapitated, and the brains were removed and homogenized; from tissue; host or cells: Hartley guinea pig brain homogenate (washed membranes)
T2 sequence (Q60492 whole entry): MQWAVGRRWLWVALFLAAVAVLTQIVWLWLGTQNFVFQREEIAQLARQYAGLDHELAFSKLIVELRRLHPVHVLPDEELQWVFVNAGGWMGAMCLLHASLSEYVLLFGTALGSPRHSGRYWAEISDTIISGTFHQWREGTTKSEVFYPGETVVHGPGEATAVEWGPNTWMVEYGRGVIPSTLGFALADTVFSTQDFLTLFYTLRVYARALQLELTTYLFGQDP
In words: In vitro binding, inhibition of [^3 H]PPP binding to guinea pig brain homogenate. Particulars: guinea pig brain homogenate, 0.6 nM [^3 H]PPP, 25° C., 1 hour. Further details: species or system Hartley guinea pig. On the procedure:
as §1
Hartley guinea pigs were decapitated, and the brains were removed and homogenized in 20 volumes of 50 mM Tris-HCl using a Polytron homogenizer. The homogenate was centrifuged at 27,000×G for 15 minutes, and the pellet was resuspended in 50 mM Tris-HCl. The centrifugation procedure was repeated twice. The pellet was diluted to approximately 8 mg wet tissue/assay. Various concentrations of the test compounds (100 μL) and [^3 H]PPP (100 μL, final concentration 0.6 nM) were incubated with 1.8 mL of the tissue homogenate at 25° C. for 1 hour. Unlabeled PPP (final concentration 10 μM) was added to some tubes to determine nonspecific binding. The reaction was stopped by filtration through GF/B filters using a Brandel Cell Harvester. After washing twice with […] of ice cold Tris-HCl, the filters were suspended in 5 mL of scintillation fluid, and the radioactivity was counted after standing at room temperature overnight.
Table 1 summarizes the results of the in vitro binding studies using these three radioligands at the NMDA receptor site, μ-site and σ-site of opioid receptor, respectively.

The test system of the next assay is NMDA-induced lethality. The assay is described as follows: In vivo protection in the mouse against NMDA-induced lethality. Also noted: species or system Swiss-Webster mouse. The settings on record: ip, 30 minutes before 200 mg/kg NMDA, eight mice per dose, Litchfield and Wilcoxin; for ED50: Mus musculus. Here is the method: According to the method described by Ferkany et al. (1988), the test compounds were administered ip to four male Swiss-Webster mice (26-34 g) each, following 30 minutes later, 200 mg/kg of NMDA was administered to the mice each. […] Those compounds that protected three or more of the mice at any of the doses were evaluated further by determining the ED50 values using three or more doses with the eight mice per dose. The ED50 was estimated by the method of Litchfield and Wilcoxin (1949). Water-soluble compounds were dissolved in distilled water and administered in a volume of 10 ml/kg. Water-insoluble compounds were suspended in an aqueous solution of 0.5% methyl cellulose and administered in a volume of 20 ml/kg.

Assay [4] deals with NMDA receptor site. The settings on record: shown previously; cited from earlier work.
[5] abbreviates: Ki [^3 H]DAGO, 2 nM [^3 H]DAGO, 25° C., 1 hour.

T1 sequence (P33535 whole entry): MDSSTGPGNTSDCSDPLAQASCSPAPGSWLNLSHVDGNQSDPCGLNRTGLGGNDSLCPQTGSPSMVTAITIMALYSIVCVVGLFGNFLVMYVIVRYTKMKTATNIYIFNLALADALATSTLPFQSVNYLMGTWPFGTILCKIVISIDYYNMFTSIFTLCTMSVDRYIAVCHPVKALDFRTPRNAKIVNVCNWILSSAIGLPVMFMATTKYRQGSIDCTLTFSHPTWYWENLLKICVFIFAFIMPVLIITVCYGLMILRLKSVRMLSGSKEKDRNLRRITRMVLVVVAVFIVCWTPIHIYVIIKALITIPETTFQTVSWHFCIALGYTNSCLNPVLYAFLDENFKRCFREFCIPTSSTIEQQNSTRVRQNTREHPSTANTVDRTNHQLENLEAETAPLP

Consider `CC(C1CO1)N1CC[C@]2(C)c3ccccc3C[C@H]1[C@H]2C` (single isomer, unassigned; (+)) [(+)-BZ-5 (Isomer A)], for which the Ki is 9.74 µM in assay [1] (setting [5]), 29.2 µM at NMDA receptor site [2] and 0.04 µM in assay [3] (read-out: Ki [^3 H]PPP).
As to `CC(C1CC1)N1CC[C@]2(C)c3ccccc3C[C@H]1[C@H]2C` (single isomer, unassigned; (+)) [(+)-IIId-7 (Isomer A)], the results for the Ki (in assay [1] (setting [5]); at NMDA receptor site [2]; in assay [3] (read-out: Ki [^3 H]PPP)) were 3.05 µM, 0.75 µM and 0.02 µM, respectively. This compound yielded a Mouse ED50 in the assay with NMDA-induced lethality of 6.8 mg/kg.
The corresponding values for `CC(C1CC1)N1CC[C@]2(C)c3ccccc3C[C@H]1[C@H]2C` (single isomer, unassigned; (+)) [(+)-IIId-7 (Isomer B)] are 6.58 µM, 1.99 µM, 0.071 µM and 13.7 mg/kg.
Take `CC(C1CC1)N1CC[C@]2(C)c3cc(F)ccc3C[C@H]1[C@H]2C` (single isomer, unassigned; (+)) [(+)-BZ-14 (Isomer A)]: the figures for the inhibition constant Ki (in assay [1] (setting [5]); on NMDA receptor site [2]; in assay [3] (read-out: Ki [^3 H]PPP)) were 0.72 µM, 0.85 µM and 0.014 µM, respectively. For the same compound, in the assay on NMDA-induced lethality, the Mouse ED50 worked out at 6.1 mg/kg.
Turning to `C[C@]12N[C@H](Cc3ccccc31)c1ccccc12` [MK-801], the “high-affinity ligand at the NMDA receptor site” value in the assay on NMDA receptor site [4] was “high-affinity”.
Turning to `C[C@@H]1[C@@H]2Cc3ccccc3[C@@]1(C)CCN2C(C)(C)C` [(+)-BZ-15A, (1S,5S,9S)-(+)-2-Tert-butyl-5,9-dimethyl-6,7-benzomorphan], the Ki in assay [1] (setting [5]) amounted to 7.29 µM; on NMDA receptor site [2], 2.59 µM; in assay [3] (read-out: Ki [^3 H]PPP), 0.98 µM. Also, in the assay on NMDA-induced lethality, the 50% effect level (ED50) was put at a dose of 10.7 mg/kg.
As for `CC(C)N1CC[C@]2(C)c3cc(Cl)ccc3C[C@H]1[C@H]2C` [(+)-BZ-26, (1S,5S,9S)-(+)-2'-Chloro-2-isopropyl-5,9-dimethyl-6,7-benzomorphan], the inhibition constant Ki in assay [1] (setting [5]) was 11.8 µM; on NMDA receptor site [2], 12.8 µM; in assay [3] (read-out: Ki [^3 H]PPP) it was 0.074 µM. This compound also came in with an ED50 in the assay with NMDA-induced lethality of 12.2 mg/kg.
Regarding `C#CC(C)N1CC[C@]2(C)c3ccccc3C[C@H]1[C@H]2C` (single isomer, unassigned; (+)) [(+)-BZ-6 (Isomer B)], the figures for the Ki (in assay [1] (setting [5]); on NMDA receptor site [2]; in assay [3] (read-out: Ki [^3 H]PPP)) were 9 µM, 2.55 µM and 1.1 µM, respectively. Further, the Mouse ED50 in the assay on NMDA-induced lethality stood at 18.8 mg/kg.
Turning to `C=CC(C)N1CC[C@]2(C)c3ccccc3C[C@H]1[C@H]2C` (single isomer, unassigned; (+)) [(+)-BZ-2], the inhibition constant (Ki) in assay [1] (setting [5]) was 9.58 µM; on NMDA receptor site [2] it was 1.32 µM; in assay [3] (read-out: Ki [^3 H]PPP) it was 0.1 µM. In the assay on NMDA-induced lethality, this compound yielded a 50% effective dose (ED50) of 22.1 mg/kg.
In the case of `CN1CC[C@@]23CCCC[C@@H]2[C@@H]1Cc1ccc(O)cc13` [Dextrorphan, reference compound], in assay [1] (setting [5]), the Ki was 2.2 µM. In the assay on NMDA-induced lethality, this compound returned a Mouse ED50 of 34.6 mg/kg.
Regarding `CC(C)N1CC[C@]2(C)c3ccccc3C[C@H]1[C@H]2C` [(+)-IIId-6, (1S,5S,9S)-(+)-2-Isopropyl-5,9-dimethyl-6,7-benzomorphan], the figures for the Ki (in assay [1] (setting [5]); at NMDA receptor site [2]; in assay [3] (read-out: Ki [^3 H]PPP)) were 18.9 µM, 3.51 µM and 0.56 µM, respectively. In addition, the median effective dose (ED50) in the assay on NMDA-induced lethality worked out at 17.3 mg/kg.
The corresponding values for `CC(C)N1CC[C@]2(C)c3cc(F)ccc3C[C@H]1[C@H]2C` [(+)-BZ-13, (1S,5S,9S)-(+)-2'-Fluoro-2-isopropyl-5,9-dimethyl-6,7-benzomorphan] are 20.2 µM, 4.15 µM, 0.26 µM and 9 mg/kg.
Take `C#CC(C)N1CC[C@]2(C)c3ccccc3C[C@H]1[C@H]2C` (single isomer, unassigned; (+)) [(+)-BZ-6 (Isomer A)]: the Ki in assay [1] (setting [5]) came to 12.3 µM; at NMDA receptor site [2], 16.6 µM; in assay [3] (read-out: Ki [^3 H]PPP), 19.2 µM. The compound further had a Mouse ED50 in the assay with NMDA-induced lethality of over 50 mg/kg.
The corresponding values for `CC(C1CCC1)N1CC[C@]2(C)c3ccccc3C[C@H]1[C@H]2C` (single isomer, unassigned; (+)) [(+)-BZ-3 (Isomer B)] are 13.5 µM, 3.61 µM, 0.0081 µM and over 60 mg/kg.
Regarding `C[C@@H]1[C@@H]2Cc3ccccc3[C@@]1(C)CCN2O` [(+)-BZ-17A, (1S,5S,9S)-(+)-2-hydroxy-5,9-dimethyl-6,7-benzomorphan], the Ki in assay [1] (setting [5]) was determined as 21.9 µM; at NMDA receptor site [2], 43 µM; in assay [3] (read-out: Ki [^3 H]PPP) it was 25.9 µM. The 50% effect level in the assay with NMDA-induced lethality (ED50) was put at a dose of 21.6 mg/kg.
On to `CC(C1CCC1)N1CC[C@]2(C)c3ccccc3C[C@H]1[C@H]2C` (single isomer, unassigned; (+)) [(+)-BZ-3 (Isomer A)], for which the Ki in assay [1] (setting [5]) is 11.8 µM; on NMDA receptor site [2], 0.22 µM; in assay [3] (read-out: Ki [^3 H]PPP), 0.0012 µM. The compound also had a Mouse ED50 with NMDA-induced lethality of 16.4 mg/kg.
Turning to `C=CC(C1CC1)N1CC[C@]2(C)c3ccccc3C[C@H]1[C@H]2C` (single isomer, unassigned; (+)) [(+)-BZ-4], the Ki in assay [1] (setting [5]) amounted to 20.2 µM; on NMDA receptor site [2], 11.5 µM; in assay [3] (read-out: Ki [^3 H]PPP) it was 0.13 µM. The compound further came in with an ED50 with NMDA-induced lethality of 24.1 mg/kg.
The corresponding values for `C[C@@H]1[C@@H]2Cc3ccccc3[C@@]1(C)CCN2C(C1CC1)C1CC1` [(+)-BZ-1, (1S,5S,9S)-(+)-2-Dicyclopropylmethyl-5,9-dimethyl-6,7-benzomorphan] are 11.5 µM, 14 µM, 0.16 µM and 33.1 mg/kg.
On to `C[C@@H]1[C@@H]2Cc3ccccc3[C@@]1(C)CCN2N(C)C` [(+)-BZ-18, (1S,5S,9S)-(+)-5,9-dimethyl-2-dimethylamino-6,7-benzomorphan], for which the Ki on NMDA receptor site [2] was 4.54 µM; in assay [3] (read-out: Ki [^3 H]PPP), 0.81 µM. It took a dose of 14.4 mg/kg to reach the 50% effect level in the assay with NMDA-induced lethality (ED50).
As for `CC(C1CC1)N1CC[C@]2(C)c3cc(F)ccc3C[C@H]1[C@H]2C` (single isomer, unassigned; (+)) [(+)-BZ-14 (Isomer B)], the Ki in assay [1] (read-out: Ki [^3 H]DAGO, 2 nM [^3 H]DAGO, 25° C., 1 hour) is 5.01 µM; on NMDA receptor site [2], 3.53 µM; in assay [3] (read-out: Ki [^3 H]PPP), 0.062 µM. The Mouse ED50 in the assay with NMDA-induced lethality stood at 13 mg/kg.
As to `CC(C1CO1)N1CC[C@]2(C)c3ccccc3C[C@H]1[C@H]2C` (single isomer, unassigned; (+)) [(+)-BZ-5], the Ki turned out to be 5.8 µM in assay [1] (setting [5]), 11.6 µM on NMDA receptor site [2] and 0.011 µM in assay [3] (read-out: Ki [^3 H]PPP).
As for `CC(C1CO1)N1CC[C@]2(C)c3ccccc3C[C@H]1[C@H]2C` (mixture of isomers) [(+)-BZ-5 (Mixture of Isomer B and C), (1S,5S,9S)-(+)-5,9-Dimethyl-2-(1-methyl-2,3-epoxypropyl)-6,7-benzomorphan], the Ki in assay [1] (setting [5]) was determined as 12.4 µM; in assay [3] (read-out: Ki [^3 H]PPP) it was 0.042 µM. This compound registered an ED50 in the assay with NMDA-induced lethality of 32.5 mg/kg.
For the compound `COc1ccc2c(c1)[C@]13CCCC[C@@H]1[C@H](C2)N(C)CC3` [Dextromethorphan, reference compound], the Ki in assay [1] (setting [5]) is 1.74 µM; in assay [3] (Ki [^3 H]PPP), 0.15 µM. The ED50 in the assay on NMDA-induced lethality is 39 mg/kg.
